Measured values as given in US9751886B2, “4-amino-6-phenyl-6,7-dihydro[1,2,3]triazolo[1,5-A]pyrazine derivatives as inhibitors of beta-secretase (BACE)” (Janssen Pharmaceutica NV, priority 2013, dated 2017).

How the values were obtained:
[1] = system: brain levels of soluble Aβ42, Aβ40; test: In vivo Aβ lowering in non-transgenic rodents (MSD electrochemiluminescence); parameters: species or system mouse; conditions: untreated control = 100
From the text: To determine whether acute administration of an Aβ lowering agent would reduce Aβ levels in vivo, non-transgenic rodents, e.g. mice or rats were used. Animals treated with the Aβ lowering agent were examined and compared to those untreated or treated with vehicle and brain levels of soluble Aβ42, Aβ40, Aβ38, and Aβ37 were quantitated by Meso Scale Discovery's (MSD) electrochemiluminescence detection technology. Treatment periods varied from hours (h) to days and were adjusted based on the results of the Aβ lowering once a time course of onset of effect could be established.
A typical protocol for measuring Aβ lowering in vivo is shown but it is only one of many variations that could be used to optimize the levels of detectable A. For example, Aβ lowering compounds were formulated in 20% of Captisol® (a sulfo-butyl ether of β-cyclodextrin) in water or 20% hydroxypropyl β cyclodextrin. The Aβ lowering agents were administered as a single oral dose or by any acceptable route of administration to overnight fasted animals. […]
Blood was collected by decapitation and exsanguinations in EDTA-treated collection tubes. Blood was centrifuged at 1900 g for 10 minutes (min) at 4° C. and the plasma recovered and flash frozen for later analysis. The brain was removed from the cranium and hindbrain. The cerebellum was removed and the left and right hemisphere were separated. The left hemisphere was stored at −18° C. for quantitative analysis of test compound levels. The right hemisphere was rinsed with phosphate-buffered saline (PBS) buffer and immediately frozen on dry ice and stored at −80° C. until homogenization for biochemical assays.
Mouse brains from non-transgenic animals were resuspended in 8 volumes of 0.4% DEA (diethylamine)/50 mM NaCl containing protease inhibitors (Roche-11873580001 or 04693159001) per gram of tissue, e.g. for 0.158 g brain, add 1.264 ml of 0.4% DEA. All samples were homogenized in the FastPrep-24 system (MP Biomedicals) using lysing matrix D (MPBio #6913-100) at 6 m/s for 20 seconds. Homogenates were centrifuged at 20800×g for 5 min and supernatants collected. Supernatants were centrifuged at 221.300×g for 50 min. The resulting high speed supernatants were then transferred to fresh eppendorf tubes. Nine parts of supernatant were neutralized with 1 part 0.5 M Tris-HCl pH 6.8 and used to quantify Aβ.
To quantify the amount of Aβ42, Aβ40, Aβ38, and Aβ37 in the soluble fraction of the brain homogenates, simultaneous specific detection of Aβ42, Aβ40, Aβ38, and Aβ37 was performed using MSD's electro-chemiluminescence multiplex detection technology. In this assay purified monoclonal antibodies specific for Abeta37 (JRD/Aβ37/3), Abeta38 (J&JPRD/Aβ38/5), Abeta40 (JRF/cAβ40/28), and Abeta42 (JRF/cAβ(342/26) were coated on MSD 4-plex plates. Briefly, the standards (a dilution of synthetic Aβ42, Aβ40, Aβ38, and Aβ37) were prepared in 1.5 ml Eppendorf tube in Ultraculture, with final concentrations ranging from 10000 to 0.3 pg/m. The samples and standards were co-incubated with Sulfo-tag labelled JRF/rAβ/2 antibody to the N-terminus of Aβ as detector antibody. 50 μl of conjugate/sample or conjugate/standards mixtures were then added to the antibody-coated plate. The plate was allowed to incubate overnight at 4° C. in order to allow formation of the antibody-amyloid complex. Following this incubation and subsequent wash steps the assay was finished by adding read buffer according to the manufacturer's instructions (Meso Scale Discovery, Gaitherburg, Md.).
The SULFO-TAG emits light upon electrochemical stimulation initiated at the electrode. MSD Sector instrument SI6000 was used for signal read-out.
The results are shown in Table 8 (value for untreated animals as control (Ctrl) was set at 100): […]

[2] = system: Abeta total secreted by human neuroblastoma SKNBE2 cells expressing wild type hAPP695; test: BACE1 cellular αLisa assay in SKNBE2 cells, Abeta total; type: cell-based; conditions: 18 hours incubation; for IC50: Homo sapiens, read-out: Cellular αLisa assay in SKNBE2 cells Abetatotal pIC50 (converted)
Protocol: (§1) In two αLisa assays the levels of Abeta total and Abeta 1-42 produced and secreted into the medium of human neuroblastoma SKNBE2 cells are quantified. The assay is based on the human neuroblastoma SKNBE2 expressing the wild type Amyloid Precursor Protein (hAPP695). The compounds are diluted and added to these cells, incubated for 18 hours and then measurements of Abeta 1-42 and Abeta total are taken. Abeta total and Abeta 1-42 are measured by sandwich αLisa. αLisa is a sandwich assay using biotinylated antibody AbN/25 attached to streptavidin coated beads and antibody Ab4G8 or cAb42/26 conjugated acceptor beads for the detection of Abeta total and Abeta 1-42 respectively. In the presence of Abeta total or Abeta 1-42, the beads come into close proximity. The excitation of the donor beads provokes the release of singlet oxygen molecules that trigger a cascade of energy transfer in the acceptor beads, resulting in light emission.

[3] = system: Abeta 1-42 secreted by human neuroblastoma SKNBE2 cells expressing wild type hAPP695; test: BACE1 cellular αLisa assay in SKNBE2 cells, Abeta 1-42; type: cell-based; conditions: 18 hours incubation; for IC50: Homo sapiens, read-out: Cellular αLisa assay in SKNBE2 cells Abeta 42 pIC50 (converted)
Protocol: as §1

[4] = target: recombinant BACE2 protein (Homo sapiens (Human), UniProt Q9Y5Z0); test: BACE2 Biochemical FRET based assay; conditions: 0.4 μg/ml BACE2, 10 μM substrate, 450 min, pH 5.0
From the text: (§2) This assay is a Fluorescence Resonance Energy Transfer Assay (FRET) based assay. The substrate for this assay contains the ‘Swedish’ Lys-Met/Asn-Leu mutation of the amyloid precursor protein (APP) beta-secretase cleavage site. This substrate also contains two fluorophores: (7-methoxycoumarin-4-yl) acetic acid (Mca) is a fluorescent donor with excitation wavelength at 320 nm and emission at 405 nm and 2,4-Dinitrophenyl (Dnp) is a proprietary quencher acceptor. […] Upon cleavage by the beta-secretase, the fluorophore Mca is separated from the quenching group Dnp, restoring the full fluorescence yield of the donor. The increase in fluorescence is linearly related to the rate of proteolysis.
Briefly in a 384-well format recombinant BACE2 protein in a final concentration of 0.4 μg/ml is incubated for 450 minutes at room temperature with 10 μM substrate in incubation buffer (50 mM Citrate buffer pH 5.0, 0.05% PEG, no DMSO) in the absence or presence of compound. Next the amount of proteolysis is directly measured by fluorescence measurement at T=0 and T=450 (excitation at 320 nm and emission at 405 nm). Results are expressed in RFU (Relative Fluorescence Units), as difference between T450 and TO.

[5] = target: recombinant BACE1 protein (Homo sapiens (Human), UniProt P56817); test: BACE1 Biochemical FRET based assay - Method 2; conditions: 0.04 μg/ml BACE1, 20 μM substrate, 450 min, pH 5.0
From the text: as §2, with “this assay is an APP derived 13 amino acids peptide that contains the” for “this assay contains the”, “cleavage by BACE1, the fluorophore” for “cleavage by the beta-secretase, the fluorophore”
Briefly in a 384-well format recombinant BACE1 protein in a final concentration of 0.04 μg/ml is incubated for 450 minutes at room temperature with 20 μM substrate in incubation buffer (50 mM Citrate buffer pH 5.0, 0.05% PEG) in the presence of compound or DMSO. Next the amount of proteolysis is directly measured by fluorescence measurement (excitation at 320 nm and emission at 405 nm) at different incubation times (0, 30, 60, 90, 120 and 450 min). For every experiment a time curve (every 30 min between 0 min and 120 min) is used to determine the time where we find the lowest basal signal of the high control. The signal at this time (Tx) is used to subtract from the signal at 450 min. Results are expressed in RFU, as difference between T450 and Tx.

[6] = dose 10, s.c., 2 h after administration
[7] = dose 10, s.c., 4 h after administration
[8] = dose 10, p.o., 2 h after administration
[9] = dose 10, p.o., 4 h after administration

Chain of recombinant BACE1 protein (P56817 46-501): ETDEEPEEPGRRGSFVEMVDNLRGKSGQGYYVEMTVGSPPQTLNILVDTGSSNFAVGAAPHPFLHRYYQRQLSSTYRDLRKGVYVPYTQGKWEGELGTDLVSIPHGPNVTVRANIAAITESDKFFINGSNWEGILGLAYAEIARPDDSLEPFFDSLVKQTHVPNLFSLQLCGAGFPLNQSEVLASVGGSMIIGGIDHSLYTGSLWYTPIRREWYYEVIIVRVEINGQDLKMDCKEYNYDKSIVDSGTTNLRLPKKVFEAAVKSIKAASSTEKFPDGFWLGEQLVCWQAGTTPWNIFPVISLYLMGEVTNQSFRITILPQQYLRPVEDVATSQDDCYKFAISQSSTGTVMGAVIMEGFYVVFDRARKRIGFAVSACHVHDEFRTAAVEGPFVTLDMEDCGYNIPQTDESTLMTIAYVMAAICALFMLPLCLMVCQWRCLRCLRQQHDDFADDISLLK
Chain of recombinant BACE2 protein (Q9Y5Z0 63-518): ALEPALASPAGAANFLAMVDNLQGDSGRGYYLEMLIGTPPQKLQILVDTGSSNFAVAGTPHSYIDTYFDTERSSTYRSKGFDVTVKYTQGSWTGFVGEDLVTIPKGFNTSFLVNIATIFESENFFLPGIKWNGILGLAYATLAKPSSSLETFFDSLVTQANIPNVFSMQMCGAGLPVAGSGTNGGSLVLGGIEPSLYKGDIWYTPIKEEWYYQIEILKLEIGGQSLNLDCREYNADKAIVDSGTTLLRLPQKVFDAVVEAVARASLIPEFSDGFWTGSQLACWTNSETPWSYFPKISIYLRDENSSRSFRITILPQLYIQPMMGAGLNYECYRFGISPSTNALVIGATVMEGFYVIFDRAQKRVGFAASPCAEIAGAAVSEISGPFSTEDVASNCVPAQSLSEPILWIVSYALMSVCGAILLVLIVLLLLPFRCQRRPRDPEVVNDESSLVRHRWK

Row | SMILES | IC50 [2] [nM] | IC50 [3] [nM] | BACE2 Biochemical FRET based assay pIC50 [4] | BACE1 Biochemical FRET based assay - Method 2 pIC50 [5] | other results
1 | C[C@@]1(c2cc(NC(=O)c3ccc(C#N)cn3)ccc2F)Cn2nncc2C(N)=N1 [Compound 2, N-{3-[(6R)-4-Amino-6-methyl-6,7-dihydro[1,2,3]triazolo[1,5-a]pyrazin-6-yl]-4-fluorophenyl}-5-cyanopyridine-2-carboxamide] | 1.05 | 1.1 | – | – | Aβ40 (% vs Ctrl)_Mean [1, 6]: 44 % vs Ctrl; Aβ42 (% vs Ctrl)_Mean [1, 6]: 44 % vs Ctrl; Aβ40 (% vs Ctrl)_Mean [1, 7]: 61 % vs Ctrl; Aβ42 (% vs Ctrl)_Mean [1, 7]: 50 % vs Ctrl
2 | C[C@@]1(c2cc(NC(=O)c3cnc(OCF)cn3)ccc2F)Cn2nncc2C(N)=N1 [Compound 7, N-{3-[(6R)-4-amino-6-methyl-6,7-dihydro[1,2,3]triazolo[1,5-a]pyrazin-6-yl]-4-fluoropheny}-5-(fluoromethoxy)pyrazine-2-carboxamide] | – | – | 7.78 | 8.52 | Cellular αLisa assay in SKNBE2 cells Abetatotal pIC50 [2]: 8.86; Cellular αLisa assay in SKNBE2 cells Abeta 42 pIC50 [3]: 8.87
3 | C[C@@]1(c2cc(NC(=O)c3cnc(OCC(F)(F)F)cn3)ccc2F)Cn2nncc2C(N)=N1 [Compound 6, N-{3-[(6R)-4-amino-6-methyl-6,7-dihydro[1,2,3]triazolo[1,5-a]pyrazin-6-yl]-4-fluoropheny}-5-(2,2,2-trifluoroethoxy)pyrazine-2-carboxamide] | – | – | 7.22 | 8.51 | Cellular αLisa assay in SKNBE2 cells Abetatotal pIC50 [2]: 8.32; Cellular αLisa assay in SKNBE2 cells Abeta 42 pIC50 [3]: 8.28
4 | C[C@@]1(c2cc(NC(=O)c3nn(C(F)F)cc3Cl)ccc2F)Cn2nncc2C(N)=N1 [Compound 5, N-{3-[(6R)-4-Amino-6-methyl-6,7-dihydro[1,2,3]triazolo[1,5-a]pyrazin-6-yl]-4-fluorophenyl}-4-chloro-1-(difluoromethyl)-1H-pyrazole-3-carboxamide] | 3.09 | 3.72 | 8.73 | 8.72 | –

Further lines, with some results ahead:

Row | IC50 [2] [nM] | IC50 [3] [nM] | BACE2 Biochemical FRET based assay pIC50 [4] | BACE1 Biochemical FRET based assay - Method 2 pIC50 [5] | SMILES | other results
5 | 56.2 | 57.5 | – | – | NC1=NC(CF)(c2cc(NC(=O)c3ccc(F)cn3)ccc2F)Cn2nncc21 (racemic) [Compound 9, (rac)-N-{3-[4-amino-6-(fluoromethyl)-6,7-dihydro[1,2,3]triazolo[1,5-a]pyrazin-6-yl]-4-fluorophenyl}-5-fluoropyridine-2-carboxamide] | IC50 ([4]; read-out: BACE2 Biochemical FRET based assay pIC50 (converted)): 8.32 nM; IC50 ([5]; read-out: BACE1 Biochemical FRET based assay - Method 2 pIC50 (converted)): 8.32 nM
6 | 4470 | 4170 | 6.3 | 6.12 | NC1=N[C@@](CF)(c2cc(NC(=O)c3ccc(F)cn3)ccc2F)Cn2nncc21 [Compound 11, N-{3-[(6S)-4-amino-6-(fluoromethyl)-6,7-dihydro[1,2,3]triazolo[1,5-a]pyrazin-6-yl]-4-fluorophenyl}-5-fluoropyridine-2-carboxamide] | –
7 | 24.5 | 24.5 | 8.49 | 8.39 | NC1=N[C@](CF)(c2cc(NC(=O)c3ccc(F)cn3)ccc2F)Cn2nncc21 [Compound 10, N-{3-[(6R)-4-amino-6-(fluoromethyl)-6,7-dihydro[1,2,3]triazolo[1,5-a]pyrazin-6-yl]-4-fluorophenyl}-5-fluoropyridine-2-carboxamide] | Aβ40 (% vs Ctrl)_Mean [1, 8]: 95 % vs Ctrl; Aβ42 (% vs Ctrl)_Mean [1, 8]: 79 % vs Ctrl; Aβ40 (% vs Ctrl)_Mean [1, 9]: 116 % vs Ctrl; Aβ42 (% vs Ctrl)_Mean [1, 9]: 87 % vs Ctrl
8 | 4.47 | 4.68 | – | 8.36 | C[C@@]1(c2cc(NC(=O)c3ccc(F)cn3)cc(F)c2F)Cn2nncc2C(N)=N1 [Compound 8, N-{3-[(6R)-4-Amino-6-methyl-6,7-dihydro[1,2,3]triazolo[1,5-a]pyrazin-6-yl]-4,5-difluorophenyl}-5-fluoropyridine-2-carboxamide] | Aβ40 (% vs Ctrl)_Mean [1, 6]: 56 % vs Ctrl; Aβ42 (% vs Ctrl)_Mean [1, 6]: 56 % vs Ctrl; Aβ40 (% vs Ctrl)_Mean [1, 7]: 136 % vs Ctrl; Aβ42 (% vs Ctrl)_Mean [1, 7]: 105 % vs Ctrl
